As a reminder, the EC50 is the midpoint of the concentration-response curve. Read a high EC50 as a less potent agent.

The test deals with T1, Or10a/Orco (Drosophila melanogaster, UniProt Q9VYZ1).
T1 construct: his-tag; made in house; host or cells: baculovirus-infected Sf9 cells
T1 sequence (Q9VYZ1 1-406): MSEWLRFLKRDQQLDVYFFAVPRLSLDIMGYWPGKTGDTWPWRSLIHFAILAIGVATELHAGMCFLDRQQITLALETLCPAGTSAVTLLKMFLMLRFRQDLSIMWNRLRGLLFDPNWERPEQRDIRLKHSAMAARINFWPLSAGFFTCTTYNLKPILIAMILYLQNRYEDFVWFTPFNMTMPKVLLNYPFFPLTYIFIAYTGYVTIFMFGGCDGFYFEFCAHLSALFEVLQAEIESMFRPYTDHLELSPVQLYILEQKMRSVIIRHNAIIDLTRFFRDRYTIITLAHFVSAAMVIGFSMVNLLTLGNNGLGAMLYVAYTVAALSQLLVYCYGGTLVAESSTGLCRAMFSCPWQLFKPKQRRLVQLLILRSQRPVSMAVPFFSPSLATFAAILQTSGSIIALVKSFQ
T1 sequence (Q9VNB5 1-486 partner): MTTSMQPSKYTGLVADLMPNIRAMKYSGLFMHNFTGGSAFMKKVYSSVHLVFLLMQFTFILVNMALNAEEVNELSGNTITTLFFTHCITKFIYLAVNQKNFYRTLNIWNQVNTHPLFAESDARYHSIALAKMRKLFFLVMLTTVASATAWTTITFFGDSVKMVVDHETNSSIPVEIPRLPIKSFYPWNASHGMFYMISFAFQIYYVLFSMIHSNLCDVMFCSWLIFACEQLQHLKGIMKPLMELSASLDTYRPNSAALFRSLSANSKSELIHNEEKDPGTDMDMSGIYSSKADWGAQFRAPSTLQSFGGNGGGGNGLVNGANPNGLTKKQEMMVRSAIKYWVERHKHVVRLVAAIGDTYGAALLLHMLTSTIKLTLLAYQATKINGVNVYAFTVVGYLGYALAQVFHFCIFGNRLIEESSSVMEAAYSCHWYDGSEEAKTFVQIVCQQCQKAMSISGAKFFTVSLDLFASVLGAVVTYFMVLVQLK
As to the kind of experiment: EIS sensor, Or10a/Orco liposomes on gold electrode. In kind it is biochemical. As to the method:
Prior to their use, liposomes were defrosted on ice and then destabilized by incubating with 0.2% CHAPS for 15 min at room temperature. Then 200 μg of purified odorant receptor^28 was added to 1 mg of liposomes and rotated at 10 rpm for 1 h at room temperature. Excess detergent was removed by four additions of 25 mg of Bio-Beads SM-2 (Bio-Rad, USA) and incubation at 4° C. for 30 min, 2 h, overnight and a further 2 h respectively. The Bio-Beads were removed after each incubation period. The OrX or OrX/Orco integrated liposomes were pelleted by centrifugation at 100,000 g for 1 h, and were resuspended in 500 μL of rehydration buffer. Integration of OrXs and Orco into liposomes was assessed by density gradient ultracentrifugation (DGU) using Accudenz (Accurate Chemical & Scientific Corporation, USA). The integrated liposomes were brought to 40% Accudenz by the addition of an equal volume of 80% Accudenz solution, placed at the bottom of an ultra-centrifugation tube, and overlaid with 30% Accudenz solution, and DGU buffer (25 mM HEPES pH 7.5, 100 mM NaCl, 10% glycerol). The sample was then centrifuged at 100,000 g for 4 h at 4° C. Liposomes will float to the top of the gradient after Accudenz DGU due to their low density.
2 mM MHA was prepared by dissolving 1.36 μl of MHA in 5 ml ethanol (AR grade). The cleaned electrodes were immersed into MHA solution and incubated overnight. The next day, all the electrodes were washed with ethanol and deionised water thoroughly in order to remove the unreacted acid. A 2:1 mol:mol ratio of EDC:NHS (100 mM EDC, 50 mM NHS) was prepared in 2 ml PBS (pH=6.5) solution. Then, the electrodes were covered in 100 μl of this solution at 28° C. for an hour to activate the carboxylic (COOH) groups of the MHA.
PBS solution was prepared by immersing one tablet of PBS in 200 ml of milli-Q water (according to manufacturers instructions) and filtered using 0.2-μm syringe filter. The pH of the prepared buffer solution was measured with a pH meter. OrX liposomes or OrX/Orco liposomes were diluted 100 fold in PBS buffer solution (pH=7.4) and the COOH-activated electrodes were incubated in that buffer solution at room temperature for one hour. Then, the electrodes were washed extensively with PBS buffer solution to wash out any unbound liposomes.
PBS (pH=7.4) was used as an electrolyte to conduct electrochemical measurements. PBS buffer was degassed for about 30 minutes prior to electrochemical measurements. […] OR immobilized electrodes were incubated in relevant odorant solution for ˜30 minutes each and washed gently with PBS before EIS measurements. […]

As to `COC(=O)c1ccccc1O` [methyl salicylate], where the note is “EIS dose response, ligand 1 aM to 100 μM”, the limit of detection is 1 fM. The compound also registered an EC50 (Table 1, approximate) of roughly 1 pM. The Sensitivity limit (Table 1, * estimated visually from dose response graph) is ~10^−15 M*. Under “Table 3”, the “Detection Range” value is 10^−15-10^−7 M.

The record behind these values is US20210255184A1, “Biosensor Device and Methods” (The New Zealand Institute for Plant and Food Research …, priority 2018, published 2021).
